Measured values taken from US20110207789A1, “METHODS RELATED TO CASEIN KINASE II (CK2) INHIBITORS AND THE USE OF PURINOSOME-DISRUPTING CK2 INHIBITORS FOR ANTI-CANCER THERAPY AGENTS” (priority 2010, published 2011).
Where two headings read alike, the source gives them in different places. Numbered stars: 1 amine (or outer) side, 2 acyl side, 3 side chain; on linkers, the order of the positions; unused ones are H or OH. Bridge positions count the residues as written; N and C are the ends. Square brackets hold non-standard residues; d marks the D form. Peptide text beside a SMILES is read from it. Trp(2-yl) = O=C([C@H](Cc1c([*:3])[nH]c2ccccc12)N[*:1])[*:2]; Leu(4R-OH,5-OH) = C[C@](O)(CO)C[C@H](N)C(=O)O; cisHyp = O=C(O)[C@@H]1C[C@H](O)CN1

How the values were obtained:
Assay type in all cases: cell-based
HeLa cells [1] = experiment: Label-free Epic RWG biosensor DMR assay in HeLa cells cultured in regular serum medium; conditions: for Type of DMR signal triggered by the compound alone: HeLa cells, regular serum medium, high confluency; for Classification as purinosome promoting or disrupting CK2 inhibitor: from DMR signals in HeLa cells; for Effect of pretreatment on the DMAT DMR response / Effect of pretreatment on the TBB DMR response: pretreatment about 1 hr, modulators 10 μM; for Effect of pretreatment on the DMAT DMR response: then DMAT 25 μM; for Effect of pretreatment on the DMAT DMR response / Effect of pretreatment on the sequential DMAT response after TBB / Effect of pretreatment on the sequential TBB response after DMAT: TBB 50 μM; for Effect of pretreatment on the TBB DMR response: then TBB 50 μM; for Effect of pretreatment on the TBB DMR response / Effect of pretreatment on the sequential DMAT response after TBB / Effect of pretreatment on the sequential TBB response after DMAT / Sensitivity of the DMR signal to cellular status: DMAT 25 μM; for Effect of pretreatment on the sequential DMAT response after TBB / Effect of pretreatment on the sequential TBB response after DMAT: order modulator (10 μM), each step about 1 hr; for EC50: Homo sapiens, synchronized HeLa cells, 25,000 cells per well; for Effect on purinosome complexes in quiescent cells: high seeding density; for Effect on purinosome complexes in proliferating cells: low seeding density; for Sensitivity of the DMR signal to cellular status: three seeding densities (5,000, 10,000, 20,000 cells per well), TBB 100 μM
Source text: HeLa cells were obtained from American Type Cell Culture (Manassas, Va.). This cervical cancer cell line was maintained in standard serum medium (i.e., minimum essential medium (MEM) (Invitrogen) supplemented with 10% fetal bovine serum (FBS) and 1% Penicillin/streptomycin). To investigate the effects of purine depletion on the purinosome formation and dissociation, HeLa cells were maintained for at least two passages in “purine-depleted medium” prior cell assays. […] FBS was dialyzed against 0.9% NaCl at 4° C. for ˜2 days using a 25 kDa MWCO dialysis membrane to remove purines. This process completely removes the purines normally present in FBS.
Cells were typically grown using ˜1 to 2×10^4 cells per well at passage 3 to 15 suspended in 50 μl of the corresponding culture medium in the biosensor microplate, and were cultured at 37° C. under air/5% CO2 for ˜1 day. The confluency for all cells at the time of assays was ˜100%.
Epic® wavelength interrogation system (Corning Inc., Corning, N.Y.) was used for whole cell sensing. This system consists of a temperature-control unit, an optical detection unit, and an on-board liquid handling unit with robotics. The detection unit is centered on integrated fiber optics, and enables kinetic measures of cellular responses with a time interval of ˜15sec. The compound solutions were introduced by using the on-board liquid handling unit (i.e., pippetting).
(§1) For biosensor cellular assays, compound solutions were made by diluting the stored concentrated solutions with the HBSS (1× Hanks balanced salt solution, plus 20 mM Hepes, pH 7.1), and transferred into a 384 well polypropylene compound storage plate to prepare a compound source plate. Two compound source plates were made separately when a two-step assay was performed. In parallel, the cells were washed twice with the HBSS and maintained in 30 μl of the HBSS to prepare a cell assay plate. Both the cell assay plate and the compound source plate(s) were then incubated in the hotel of the reader system. After incubation the baseline wavelengths of all biosensors in the cell assay microplate were recorded and normalized to zero. Afterwards, a 2 to 10 min continuous recording was carried out to establish a baseline, and to ensure that the cells reached a steady state. Cellular responses were then triggered by transferring 10 μl of the compound solutions into the cell assay plate using the on-board liquid handler.
All studies were carried out at a controlled temperature (28° C.). At least two independent sets of experiments, each with at least three replicates, were performed.

HeLa cells [2] = experiment: Label-free Epic DMR assay in HeLa cells cultured in purine depleted medium; conditions: TBB 100 μM, DMAT 25 μM
Source text: HeLa cells were obtained from American Type Cell Culture (Manassas, Va.). This cervical cancer cell line was maintained in standard serum medium (i.e., minimum essential medium (MEM) (Invitrogen) supplemented with 10% fetal bovine serum (FBS) and 1% Penicillin/streptomycin). To investigate the effects of purine depletion on the purinosome formation and dissociation, HeLa cells were maintained for at least two passages in “purine-depleted medium” prior cell assays. The purine depleted medium is a medium consisting of Roswell Park Memorial Institute 1640 (RPMI 1640) supplemented with dialyzed 5% FBS […]. FBS was dialyzed against 0.9% NaCl at 4° C. for ˜2 days using a 25 kDa MWCO dialysis membrane to remove purines. This process completely removes the purines normally present in FBS. […]
For biosensor cellular assays, compound solutions were made by diluting the stored concentrated solutions with the HBSS (1× Hanks balanced salt solution, plus 20 mM Hepes, pH 7.1), and transferred into a 384 well polypropylene compound storage plate to prepare a compound source plate. […] Both the cell assay plate and the compound source plate(s) were then incubated in the hotel of the reader system. After incubation the baseline wavelengths of all biosensors in the cell assay microplate were recorded and normalized to zero. […]

purinosome complexes = experiment: Fluorescence imaging of purinosome complexes, transient transfection of fluorescent purine synthesis enzymes; conditions: purine depleted medium cultured cells, low confluency (~50%); data not shown
Source text: The inconsistency in the action of TBB between fluorescence imaging and label-free cellular assays can be due to that confocal fluorescence imaging is largely single cell-based, while label-free assay is largely population cells-based, as well as different confluencies used in both assays.

HT29 cells = experiment: TBB-mediated DMR signal in HT29 cells; conditions: 10 μM TBB, highly confluent cells
Procedure: as §1, with “All other cell lines were obtained from American Type Cell Culture (Manassas, VA) and were cultured under corresponding standard culture conditions, according to the protocol recommended by the supplier. Cells were typically grown using ˜1 to 2×10^4 cells per well at passage 3 to 15 suspended in 50 μl of the corresponding culture medium in the biosensor microplate, and were cultured at 37° C. under air/5% CO2 for ˜1 day. The confluency for all cells at the time of assays was ˜100%. For” for “For”, “Cellular responses were then triggered by transferring 10 μl of the compound solutions into the cell assay plate using the on-board liquid handler.” left out

Row | SMILES | Type of DMR signal triggered by the compound alone (HeLa cells [1]) | Classification as purinosome promoting or disrupting CK2 inhibitor (HeLa cells [1]) | Effect of pretreatment on the DMAT DMR response (HeLa cells [1]) | Effect of pretreatment on the TBB DMR response (HeLa cells [1]) | Effect of pretreatment on the sequential TBB response after DMAT (HeLa cells [1]) | also measured
1 | OC[C@H]1O[C@@H](n2cnc3cc(Cl)c(Cl)cc32)[C@H](O)[C@@H]1O [DRB, 5,6-Dichlorobenzimidazole 1-(β-D-ribofuranoside] | DMR signals similar to the DMAT response | purinosome promoting CK2 inhibitors | desensitized | slightly potentiated |  | 
2 | O=c1cc(-c2ccc(O)cc2)oc2cc(O)cc(O)c12 [apigenin] | DMR signals similar to the DMAT response | purinosome promoting CK2 inhibitors |  |  |  | 
3 | CC[C@]1(O)C[C@@H]2CN(CCc3c([nH]c4ccccc34)[C@@](C(=O)OC)(c3cc4c(cc3OC)N(C)[C@H]3[C@@](O)(C(=O)OC)[C@H](OC(C)=O)[C@]5(CC)C=CCN6CC[C@]43[C@@H]65)C2)C1 [vinblastine] |  |  |  | reversed |  | Effect of pretreatment on the sequential DMAT response after TBB (HeLa cells [1]): suppression
4 | C[C@@H]1NC(=O)[C@H](C[C@@](C)(O)CO)NC(=O)[C@@H]2Cc3c([nH]c4ccccc34)SC[C@H](NC(=O)[C@@H]([C@H](C)O)NC1=O)C(=O)N1C[C@@H](O)C[C@H]1C(=O)N[C@@H](C)C(=O)N2 [phalloidin] (cyclo(A[dT]C[cisHyp]A[Trp(2-yl)][Leu(4R-OH,5-OH)]); thioether 3-6) |  |  | little impact | little impact |  | 
5 | O=C(O)/C=C/c1cc(Br)c(Br)c(Br)c1Br [TBCA, Tetrabromocinnamic Acid] | DMR signals similar to the DMAT response | purinosome promoting CK2 inhibitors | desensitized | slightly potentiated |  | 
6 | C/C1=C/C(=O)O[C@@H]2C[C@@H](CC[C@H](C)/C=C\C=C\CC1)O[C@@](O)([C@@H]1CSC(=O)N1)C2 [latrunculin A] |  |  | attenuated | completely inhibiting the early DMR event | altered | Effect of pretreatment on the sequential DMAT response after TBB (HeLa cells [1]): smaller DMAT response
7 | CN(C)c1nc2c(Br)c(Br)c(Br)c(Br)c2[nH]1 [DMAT, 2-Dimethylamino-4,5,6,7-tetrabromo-1H-benzimidazole] | P-DMR | purinosome promoting CK2 inhibitors |  | N-DMR similar to the buffer treated cells |  | EC50 (HeLa cells [1]; dependent on the time points after stimulation (6 min and 50 min), read-out: EC50 of dose-dependent P-DMR response): 5 to 22 µM; Effect on purinosome complexes in quiescent cells (HeLa cells [1]): promotes the further formation of purinosome complexes; Effect on purinosome complexes in proliferating cells (HeLa cells [1]): promote the formation of purinosomes; Sensitivity of the DMR signal to cellular status (HeLa cells [1]): insensitive to cellular status; Type of DMR signal in purine depleted culture (HeLa cells [2]): P-DMR; Effect on purinosome complexes by fluorescence imaging (purinosome complexes): formation of purinosome complexes
8 | Brc1c(Br)c(Br)c2[nH]nnc2c1Br [TBB, 4,5,6,7-tetrabromobenzotriazole] | N-DMR | pruinosome disrupting CK2 inhibitors | slightly potentiated |  |  | EC50 (HeLa cells [1]; 50 min, amplitude 50 min after stimulation, read-out: EC50 of dose-dependent N-DMR signal): 25 µM; Effect on purinosome complexes in quiescent cells (HeLa cells [1]): causes the disassembly of basal purinosome complexes; Effect on purinosome complexes in proliferating cells (HeLa cells [1]): promote the formation of purinosomes; Sensitivity of the DMR signal to cellular status (HeLa cells [1]): dramatically sensitive to cellular status; TBB DMR signal in HT29 cells (HT29 cells): an initial P-DMR followed by a N-DMR; Type of DMR signal in purine depleted culture (HeLa cells [2]): P-DMR; Effect on purinosome complexes by fluorescence imaging (purinosome complexes): disassembly of purinsome complexes
9 | Clc1cccc(Cl)c1N=C1NCCN1 [clonidine] |  |  |  | dose-dependently potentiated |  | 
10 | Cc1cc(C(C)(C)C)c(O)c(C)c1CC1=NCCN1 [oxymetazoline] | Gi-like DMR signal |  | attenuated |  | potentiation | 
11 | COC(=O)Nc1nc2ccc(C(=O)c3cccs3)cc2[nH]1 [nocodazole] |  |  | potentiated | reversed | slightly suppressed | Effect of pretreatment on the sequential DMAT response after TBB (HeLa cells [1]): suppression
12 | CC(C)(C)NCC(O)c1cc(O)cc(O)c1 (stereo not drawn) [terbutaline] | Gs-like DMR signal |  | little or no impact |  | little or no impact | 
